According to article PMC7457613 (bioRxiv, 2021):
“And” between values parts separate entries of the source, which are not always exact repeats. Equal values may be shown once. Read-outs that look alike come from different tables or passages of the source.

What was measured:
SARS-CoV-2 USA-WA1/2020 [1] = test: microbe, parasite or virus in culture; assay type: cell-based
[2] = system: SARS-CoV-2 USA/NYU-VC-003/2020; test: microbe, parasite or virus in culture; assay type: cell-based
SARS-CoV-2 USA-WA1/2020 [3] = test: Time-of-drug-addition assay in A549+ACE2 cells; assay type: cell-based; conditions: 12 hpi
SARS-CoV-2 USA-WA1/2020 [4] = assay type: cell-based; conditions: for SARS-CoV-2 infectious titers in apical washes: 10 μM basolateral, washes in 12 h increments up to 72 h; for number of SARS-CoV-2-N-expressing infected cells in HAEC: 10 μM, 72 h endpoint, immunofluorescence
[5] = system: polarized human airway epithelial cultures (HAEC)
BCi-NS1.1 cells = conditions: dose range up to 10 μM, 48 hours
SARS-CoV-2 = conditions: cited from earlier work
coronavirus 3CL^pro = conditions: cited from earlier work
COVID-19 = conditions: patients with more advanced infection, intravenous ref 55; cited from earlier work
in vitro = conditions: human
[6] = Severe acute respiratory syndrome coronavirus 2, A549-ACE2

## COc1cccc2[nH]c(C(=O)N[C@@H](CC(C)C)C(=O)N[C@@H](C[C@@H]3CCNC3=O)C(=O)CO)cc12 [PF-00835231]
SARS-CoV-2 USA-WA1/2020 [1]
  change in antiviral efficacy when blocking MDR1 activity: no changes in antiviral efficacy
  protection of A549+ACE2 cells from ring syncytia formation (CPE): fully protected
  protection of A549+ACE2 cells from virus-induced CPE: fully protected
[2]
  EC50: 184 nM and 326 nM
  EC90: 591 nM and 1170 nM
SARS-CoV-2 USA-WA1/2020 [3]
  minimum treatment dose that led to undetectable infection levels: 3 µM
SARS-CoV-2 USA-WA1/2020 [4]
  change in antiviral efficacy when blocking MDR1 activity: no changes in antiviral efficacy
  SARS-CoV-2 infectious titers in apical washes: viral titers below the limit of detection at most time points
  number of SARS-CoV-2-N-expressing infected cells in HAEC: number of infected cells significantly reduced
A549+ACE2 cells
  CC50: > 10000 nM
[5]
  adverse effects on morphology of HAEC (histology): Neither drug caused measurable adverse effects on the morphology
  trans-epithelial resistance (TEER) over time: did not observe this trend
BCi-NS1.1 cells
  ATP levels as a measure of cell viability: did not detect a decrease in ATP
SARS-CoV-2; Vero E6 cells ref 9, 14
  effect of chemical inhibition of MDR1 on antiviral efficacy: significantly increased
SARS-CoV-2; Vero E6 cells ref 9
  EC50: 270 nM
Coronavirus 3CL^pro
  inhibition of 3CL^pro protease activity: potent inhibition

## CC(C)C[C@H](NC(=O)OCc1ccccc1)C(=O)N[C@@H](CC1CCNC1=O)C(O)S(=O)(=O)[O-].[Na+] (some centres unmarked) [GC-376]
SARS-CoV-2 USA-WA1/2020 [1]
  EC50: 623 nM and 696 nM
  EC90: 4550 nM and 5250 nM
  protection of A549+ACE2 cells from virus-induced CPE: unable to protect cells from virus-induced CPE
[2]
  EC50: 529 nM
  EC90: 2730 nM
SARS-CoV-2 USA-WA1/2020 [3]
  minimum treatment dose that led to undetectable infection levels: 10 µM
A549+ACE2 cells
  CC50: > 10000 nM
SARS-CoV-2; Vero E6 cells ref 11
  EC50: 900 nM

## CCC(CC)COC(=O)[C@H](C)N[P@](=O)(OC[C@H]1O[C@@](C#N)(c2ccc3c(N)ncnn23)[C@H](O)[C@@H]1O)Oc1ccccc1 [remdesivir]
SARS-CoV-2 USA-WA1/2020 [1]
  EC50: 238 nM
  protection of A549+ACE2 cells from ring syncytia formation (CPE): fully protected
SARS-CoV-2 USA-WA1/2020 [1]; [6]
  EC50: 442 nM
[2]
  EC50: 238 nM
[2]; [6]
  EC50: 283 nM
  EC90: 589 nM
SARS-CoV-2 USA-WA1/2020 [3]
  minimum treatment dose that led to undetectable infection levels: 10 µM
SARS-CoV-2 USA-WA1/2020 [4]
  SARS-CoV-2 infectious titers in apical washes: viral titers below the limit of detection at most time points
  number of SARS-CoV-2-N-expressing infected cells in HAEC: number of infected cells significantly reduced
[5]
  adverse effects on morphology of HAEC (histology): Neither drug caused measurable adverse effects on the morphology
  trans-epithelial resistance (TEER) over time: negatively impacted TEER over time, albeit not statistically significantly
BCi-NS1.1 cells
  ATP levels as a measure of cell viability: caused a reduction in ATP levels compared to carrier control, albeit not statistically significantly
COVID-19
  patients with benefit: 68%
In vitro
  CC50: > 10000 nM
